According to paper PMC9437101, “Curcumin-based-fluorescent probes targeting ALDH1A3 as a promising tool for glioblastoma precision surgery and early diagnosis” (Communications Biology, 2022):
Several values for one entry are separate records, joined by “and”; a condition that tells them apart may be missing. Equal entries are not always repeated.

Columns and labels:
[1] = target: T1, ALDH1A1 (Homo sapiens, UniProt P00352); assay: Fluorescence signal change of probe with recombinant enzyme (cross reaction assay); assay type: binding; details: probe 10 μM; for probe fluorescence intensity (normalized): ALDH1A1 100 μM
T1 construct: E. coli BL21 (DE3) were transformed with the full-length expression vector of each isoform; His-tag; made in house; host or cells: E. coli BL21 (DE3)
T1 sequence (P00352 1-501): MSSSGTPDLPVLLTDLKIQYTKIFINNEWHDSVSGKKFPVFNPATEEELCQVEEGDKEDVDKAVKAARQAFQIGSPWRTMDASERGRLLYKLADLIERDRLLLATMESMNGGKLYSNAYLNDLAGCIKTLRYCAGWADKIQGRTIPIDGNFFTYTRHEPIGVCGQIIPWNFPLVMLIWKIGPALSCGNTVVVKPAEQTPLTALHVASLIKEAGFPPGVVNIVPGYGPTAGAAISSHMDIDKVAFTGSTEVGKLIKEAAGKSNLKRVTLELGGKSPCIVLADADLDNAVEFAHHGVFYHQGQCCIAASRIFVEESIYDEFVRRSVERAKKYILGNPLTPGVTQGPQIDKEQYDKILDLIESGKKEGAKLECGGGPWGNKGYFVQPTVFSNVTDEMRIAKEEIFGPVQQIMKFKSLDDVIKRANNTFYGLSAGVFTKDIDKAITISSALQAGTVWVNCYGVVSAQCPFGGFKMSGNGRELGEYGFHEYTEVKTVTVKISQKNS
Source text: (§1) All five fluorescent compounds were firstly characterized for their solubility in physiological buffer and for their absorbance values. We then performed a 3D analysis using a TECAN SPARK to simultaneously evaluate the excitation and the emission wavelengths, that were supposed to be similar to the curcumin ones[48]. […] For these reasons, we decided to continue the biochemical characterization on Probe 10 and 11 using the selected parameters (Fig. 2). The fluorescent signal changes for both molecules upon binding to the target, were firstly evaluated with recombinant human ALDH1A3. […] To better characterized our fluorescent compounds, we tested their potential cross-reactivity toward the other two isoforms of the ALDH1A subfamily. […] In addition, a wide range of biologically relevant analytes were tested at a concentration of 100 μM in complex with a fixed concentration of 10 μM of the probe (either probe 10 or probe 11), to make sure that no potential off-target signals could affect the analysis. More specifically, we checked if there were abnormal fluorescence signals that could have been contributed by the presence of biologically relevant compounds, (e.g., biologically relevant amino acids), to buffers and molecules commonly used in experimental procedures.
(§2) Based on the values obtained by the 3D analysis, a wide series of biomolecules directly used in the biochemical experiment, both in vitro and in vivo, and listed in Table 1, were tested in complex with a fixed concentration of 10 μM of both probes, to measure any possible cross reaction signal.

[2] = target: T2, ALDH1A2 (Homo sapiens, UniProt O94788); assay: as above; assay type: binding; details: probe 10 μM; for probe fluorescence intensity (normalized): ALDH1A2 100 μM
T2 construct: E. coli BL21 (DE3) were transformed with the full-length expression vector of each isoform; His-tag; made in house; host or cells: E. coli BL21 (DE3)
T2 sequence (O94788 1-518): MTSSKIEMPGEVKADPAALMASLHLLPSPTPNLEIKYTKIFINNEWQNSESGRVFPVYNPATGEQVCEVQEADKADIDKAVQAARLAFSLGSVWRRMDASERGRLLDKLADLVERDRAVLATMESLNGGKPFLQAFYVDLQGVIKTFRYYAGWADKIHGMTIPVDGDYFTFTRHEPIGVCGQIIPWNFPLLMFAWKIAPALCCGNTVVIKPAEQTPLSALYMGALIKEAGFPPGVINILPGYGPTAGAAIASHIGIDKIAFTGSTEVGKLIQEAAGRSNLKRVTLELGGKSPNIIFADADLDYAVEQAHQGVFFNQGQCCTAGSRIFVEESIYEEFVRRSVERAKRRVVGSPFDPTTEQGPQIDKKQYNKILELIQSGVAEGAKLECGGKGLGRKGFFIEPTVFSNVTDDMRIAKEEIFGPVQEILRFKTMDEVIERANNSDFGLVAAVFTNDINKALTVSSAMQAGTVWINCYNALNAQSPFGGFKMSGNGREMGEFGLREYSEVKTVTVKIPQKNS
Source text: as §1, §2

[3] = target: T3, ALDH1A3 (Homo sapiens, UniProt P47895); assay: as above; assay type: binding; details: probe 10 μM; for probe fluorescence intensity (normalized): ALDH1A3 100 μM; for increase in the intensity of the fluorescent signal on addition of ALDH1A3: vs probe alone
T3 construct: E. coli BL21 (DE3) were transformed with the full-length expression vector of each isoform; His-tag; made in house; host or cells: E. coli BL21 (DE3)
T3 sequence (P47895 1-512): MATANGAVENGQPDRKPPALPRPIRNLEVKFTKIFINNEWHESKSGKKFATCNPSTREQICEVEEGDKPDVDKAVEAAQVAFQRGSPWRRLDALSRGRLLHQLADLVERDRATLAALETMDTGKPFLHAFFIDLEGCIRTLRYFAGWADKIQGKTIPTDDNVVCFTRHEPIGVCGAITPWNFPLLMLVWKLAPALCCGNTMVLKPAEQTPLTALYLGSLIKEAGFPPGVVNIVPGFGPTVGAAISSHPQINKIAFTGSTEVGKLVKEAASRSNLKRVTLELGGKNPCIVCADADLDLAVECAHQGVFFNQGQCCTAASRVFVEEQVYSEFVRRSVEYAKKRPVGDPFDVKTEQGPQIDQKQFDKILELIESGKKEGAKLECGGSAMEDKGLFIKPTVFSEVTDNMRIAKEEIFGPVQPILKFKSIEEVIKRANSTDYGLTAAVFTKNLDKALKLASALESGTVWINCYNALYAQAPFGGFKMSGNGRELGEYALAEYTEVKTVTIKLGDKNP
Source text: as §1, §2

[4] = tested on: patient-derived glioma cell 3060; assay: Fluorescent microscopy of probe in cells; assay type: cell-based, human; details: 10 µM
[5] = tested on: HEK293T cells; assay: Fluorescent microscopy of probe in cells; assay type: cell-based, human; details: 10 µM, 2 h (Fig. 5g)
Experimental: In total, 20,000 cells/ml of U87MG, HEK293T, hASTRO and 4T1 were seeded onto glass cover slips in 24-well plates. The cells incubated at 37 °C in a 5% CO2 atmosphere overnight. Cells were washed with 1 ml of PBS buffer two times, then a 10 μM solution of probes was added to each well for 2 h. For nuclei staining, 1 µg/ml of DAPI was added the last 15 min of treatment. The cover slips were removed and washed with PBS buffer, and fixed with 0.5 ml of 4% formaldehyde solution for 10 min. The cover slips were washed with 1 ml of PBS, then slides were prepared using Mounting Media (Merck Life Science). Fluorescence images were acquired using a Leica THUNDER Imager 3D Live Cell (Leica Microsystems, Wetzlar, Germany) microscope equipped with an S Fluor 40×/1.3 objective using the LAS X software.

## CCOC(=O)Cn1cc(COc2ccc(/C=C/C(=O)/C=C(O)/C=C/c3ccc(O)c(OC)c3)cc2OC)nn1 [Probe 11]
[1]; listed as probe A
  probe fluorescence intensity (normalized): 4.322 and 4.415 and 4.4337
[1]
  reduction of the fluorescence signal with ALDH1A1 compared to ALDH1A3: 4 folds
[2]; listed as probe A
  probe fluorescence intensity (normalized): 5.638 and 5.434 and 5.428
[2]
  reduction of the fluorescence signal with ALDH1A2 compared to ALDH1A3: 6 folds
[3]; listed as probe A
  probe fluorescence intensity (normalized): 7.871 and 7.494 and 8.003
[3]
  increase in the intensity of the fluorescent signal on addition of ALDH1A3: ~8 folds

## COc1cc(/C=C/C(O)=C/C(=O)/C=C/c2ccc(OCc3cn(CCOc4ccc(C=O)cc4)nn3)c(OC)c2)ccc1O [Probe 10]
[1]; listed as probe B
  probe fluorescence intensity (normalized): 2.886 and 2.75 and 2.685
[1]
  reduction of the fluorescence signal with ALDH1A1 compared to ALDH1A3: about 2 folds
[2]; listed as probe B
  probe fluorescence intensity (normalized): 4.479 and 4.412 and 3.9708
[2]
  reduction of the fluorescence signal with ALDH1A2 compared to ALDH1A3: ~4 folds
[3]; listed as probe B
  probe fluorescence intensity (normalized): 11.108 and 11.7869 and 9.709
[3]
  increase in the intensity of the fluorescent signal on addition of ALDH1A3: about 12 folds
[4]; 2 h
  fluorescence in cells: can determine fluorescence
[4]; 3060, 2 h (Fig. 5g)
  If ROI: 254.68 a.u. and 232.45 a.u. and 200.36 a.u. and 210.52 a.u. and 200.45 a.u.
[5]
  If ROI: 64.441 a.u. and 43.961 a.u. and 59.771 a.u. and 72.091 a.u. and 46.461 a.u.
